Measurements published in patent US10793535B2, “Heterocyclic glutaminase inhibitors” (Calithera Biosciences, Inc., priority 2012, dated 2020).
Like-named read-outs stand apart in the source and are kept apart here.

Assays:
[1] = system: Caco-2 cell monolayers; experiment: Caco-2 permeability assay; assay type: in vitro ADME, human
Description: Caco-2 cells are commonly used in a confluent monolayer on a cell culture insert filter. When cultured in this format and under specific conditions, the cells become differentiated and polarized such that their phenotype, morphologically and functionally resembles the enterocytes lining the small intestine. The cell monolayer provides a physical and biochemical barrier to the passage of small molecules, and is widely used across the pharmaceutical industry as an in vitro model of the human small intestinal mucosa to predict the absorption of orally administered drugs (Hidalgo et al., Gastroenterology, 1989; Artursson, J. Pharm. Sci., 1990). The correlation between the in vitro apparent permeability (P ? app) across Caco-2 monolayers and the in vivo absorption is well established (Artursson et al., Biochem. Biophys. Res. Comm., 1991).
The present assay was used to determine the bidirectional permeability of the compounds of the invention through Caco-2 cell monolayers. Caco-2 cells were grown in confluent monolayers where the media of both the apical (A) and basolateral (B) sides were at pH 7.4. Compounds were dosed at 1 μM in the presence of 200 μM Lucifer Yellow, on the apical side (A→B) or the basolateral side (B→A) for assessment, in duplicate.
The absorption potential of compounds were classified as either Low (P-app<1×10^−6 cm/s) or High (P-app>1×10^−6 cm/s).

[2] = system: P493-6 (myc "on") cells; experiment: Cell proliferation assay; assay type: cell-based; conditions: read-out: Cell prolif P493 72 h IC50
Method: P493-6 (myc “on”) cells were maintained in growth media (RPMI-1640, 10% FBS, 2 mM glutamine, 100 units/ml Penicillin and 100 μg/ml streptomycin) at 37° C. with 5% CO2. For compound assay, P493-6 cells were plated in 96-well V-bottom plates on the day of compound addition in 50 μl of growth media at a cell density of 200,000 cells/ml (10,000 cells/well). Compounds were serially diluted in 100% DMSO at 200-times the final concentration. Compounds were diluted 100-fold into growth media and then 50 μl of this mixture was added to cell plates making the final concentration of DMSO 0.5%. Cells were incubated with compound for 72 hrs at 37° C. with 5% CO2 and analyzed for antiproliferative effects either by Cell Titer Glo (Promega) or FACS analysis using the Viacount (Millipore) kit on the Guava instrument.

Row | SMILES | Significant Efflux [1] | IC50 ([2]; P493-6, 72 h) [nM] | IC50 ([2]; 72 h) [nM]
1 | CC(C)(C)OC(=O)NCc1cccc(CC(=O)Nc2nnc(CCCCc3ccc(NC(=O)Cc4ccccc4)nn3)s2)c1 [Compound 339] | Yes (efflux ratios being significant when greater than or equal to 3 when the Papp (B→A) was greater than or equal to 1×10^−6 cm/s) | 9 | 
2 | O=C(Cc1cccc(OC(F)(F)F)c1)Nc1ccc(CCCCc2nnc(NC(=O)Cc3cccc(F)c3)s2)nn1 [Compound 679] | No | 36 | 
3 | O=C(Cc1cccc(OC(F)(F)F)c1)Nc1ccc(CCCCc2nnc(NC(=O)[C@@H](O)c3ccccc3)s2)nn1 [Compound 703] | Yes (efflux ratios being significant when greater than or equal to 3 when the Papp (B→A) was greater than or equal to 1×10^−6 cm/s) | 12 | 
4 | O=C(Cc1ccccc1)Nc1ccc(CCCCc2nnc(NC(=O)Cc3ccccn3)s2)nn1 [Compound 354] | Yes (efflux ratios being significant when greater than or equal to 3 when the Papp (B→A) was greater than or equal to 1×10^−6 cm/s) | 47 | 
5 | CC(C(=O)Nc1ccc(CCCCc2nnc(NC(=O)Cc3cccc(CNC(=O)OC(C)(C)C)c3)s2)nn1)c1ccccc1 (centres unmarked) [Compound 436] | Yes (efflux ratios being significant when greater than or equal to 3 when the Papp (B→A) was greater than or equal to 1×10^−6 cm/s) | 10 | 
6 | O=C(Cc1cccc(OC(F)(F)F)c1)Nc1ccc(CCCCc2nnc(NC(=O)[C@H](O)c3ccccc3)s2)nn1 [Compound 705] | Yes (efflux ratios being significant when greater than or equal to 3 when the Papp (B→A) was greater than or equal to 1×10^−6 cm/s) | 32 | 
7 | O=C(Cc1cccc(OC(F)(F)F)c1)Nc1ccc(CCCCc2nnc(NC(=O)Cc3cccc(OC(F)(F)F)c3)s2)nn1 [Compound 660] | Yes (efflux ratios being significant when greater than or equal to 3 when the Papp (B→A) was greater than or equal to 1×10^−6 cm/s) | 37 | 
8 | O=C(Cc1ccccc1)Nc1nnc(CCSCCc2nnc(NC(=O)Cc3ccccc3)s2)s1 [Compound 1] |  | 470 | 
9 | O=C(Cc1cccc(OC(F)(F)F)c1)Nc1ccc(CCCCc2nnc(NC(=O)CN3CCCCC3=O)s2)nn1 [Compound 707] |  | 85 | 
10 | O=C(Cc1cccc(OC(F)(F)F)c1)Nc1ccc(CCCCc2nnc(NC(=O)Cc3ccncc3)s2)nn1 [Compound 672] |  | 45 | 
11 | O=C(Cc1cc(O)cc(OC(F)(F)F)c1)Nc1ccc(CCCCc2nnc(NC(=O)Cc3ccccn3)s2)nn1 [Compound 730] |  | 25 | 
12 | O=C(Cc1cccc(OC(F)(F)F)c1)Nc1ccc(CCCCc2nnc(NC(=O)Cc3cscn3)s2)nn1 [Compound 678] |  | 26 | 
13 | O=C(Cc1cccc(OC(F)(F)F)c1)Nc1ccc(CCCCc2nnc(NC(=O)Cc3c[nH]cn3)s2)nn1 [Compound 697] |  | 50 | 
14 | Nc1cccc(CC(=O)Nc2nnc(CCCCc3ccc(NC(=O)Cc4cccc(OC(F)(F)F)c4)nn3)s2)n1 [Compound 725] |  | 150 | 
15 | O=C(Cc1cccc(OC(F)(F)F)c1)Nc1ccc(CCCCc2nnc(NC(=O)CN3C(=O)CCC3=O)s2)nn1 [Compound 708] |  | 2800 | 
16 | Cc1nn(C(=O)OC(C)(C)C)c(C)c1CC(=O)Nc1nnc(CCCCc2ccc(NC(=O)Cc3cccc(OC(F)(F)F)c3)nn2)s1 [Compound 694] |  | 29 | 
17 | O=C(Cc1cccc(OC(F)(F)F)c1)Nc1ccc(CCCCc2nnc(NC(=O)CN3C[C@@H](O)CC3=O)s2)nn1 [Compound 704] |  | 880 | 
18 | CC(C)(C)OC(=O)NCc1cccc(CC(=O)Nc2nnc(CCCCc3ccc(NC(=O)Cc4cccc(OC(F)(F)F)c4)nn3)s2)c1 [Compound 586] |  | 31 | 
19 | C[S+]([O-])c1cccc(CC(=O)Nc2nnc(CCCCc3ccc(NC(=O)Cc4cccc(OC(F)(F)F)c4)nn3)s2)c1 (centres unmarked) [Compound 682] |  | 17 | 
20 | [2H]C([2H])(CCc1nnc(NC(=O)Cc2ccccn2)s1)C([2H])([2H])c1ccc(NC(=O)Cc2cccc(OC(F)(F)F)c2)nn1 [Compound 727] |  |  | 12
21 | N#Cc1cccc(CC(=O)Nc2nnc(CCCCc3ccc(NC(=O)Cc4cccc(OC(F)(F)F)c4)nn3)s2)c1 [Compound 692] |  | 20 | 
22 | COc1cc(CC(=O)Nc2ccc(CCCCc3nnc(NC(=O)Cc4ccccn4)s3)nn2)cc(OC(F)(F)F)c1 [Compound 729] |  | 26 | 
23 | Cc1ccn(CC(=O)Nc2nnc(CCCCc3ccc(NC(=O)Cc4cccc(OC(F)(F)F)c4)nn3)s2)n1 [Compound 698] |  | 98 | 
24 | O=C(Cc1ccccn1)Nc1nnc(CCCCc2ccc(NC(=O)C(O)c3ccccc3)nn2)s1 (centres unmarked) [Compound 715] |  | 390 | 
25 | O=C(Cc1cccc(OC(F)(F)F)c1)Nc1ccc(CCCCc2nnc(NC(=O)Cc3cnccn3)s2)nn1 [Compound 676] |  | 30 | 

Row | SMILES | Significant Efflux [1] | IC50 ([2]; P493-6, 72 h) [nM] | IC50 ([2]; 72 h) [nM]
26 | Cc1cccc(CC(=O)Nc2nnc(CCCCc3ccc(NC(=O)Cc4cccc(OC(F)(F)F)c4)nn3)s2)n1 [Compound 728] |  | 18 | 
27 | CC(C)c1cn(CC(=O)Nc2nnc(CCCCc3ccc(NC(=O)Cc4cccc(OC(F)(F)F)c4)nn3)s2)nn1 [Compound 699] |  | 120 | 
28 | O=C(Cc1cccc(OC(F)(F)F)c1)Nc1ccc(CCCCc2nnc(NC(=O)C(O)c3ccccc3)s2)nn1 (centres unmarked) [Compound 689] |  | 13 | 
29 | O=C(Cc1cccc(OC(F)(F)F)c1)Nc1ccc(CCCCc2nnc(NC(=O)Cc3cccc(OCC(F)(F)F)c3)s2)nn1 [Compound 669] |  | 26 | 
30 | O=C(Cc1ccc(Cl)c(OC(F)(F)F)c1)Nc1ccc(CCCCc2nnc(NC(=O)Cc3ccccn3)s2)nn1 [Compound 721] |  | 22 | 
31 | O=C(Cc1ccccc1OC(F)(F)F)Nc1ccc(CCCCc2nnc(NC(=O)Cc3ccccc3)s2)nn1 [Compound 614] |  | 82 | 
32 | CCOC(=O)NCc1cccc(CC(=O)Nc2nnc(CCCCc3ccc(NC(=O)Cc4cccc(OC(F)(F)F)c4)nn3)s2)c1 [Compound 600] |  | 8 | 
33 | O=C(Cc1cccc(OC(F)(F)F)c1)Nc1ccc(CCCCc2nnc(NC(=O)Cn3cccn3)s2)nn1 [Compound 693] |  | 70 | 
34 | O=C(Cc1cccc(OC(F)F)c1)Nc1ccc(CCCCc2nnc(NC(=O)Cc3ccccc3)s2)nn1 [Compound 666] |  | 58 | 
35 | O=C(Cc1cccc(OC(F)(F)F)c1)Nc1ccc(CCCCc2nnc(NC(=O)Cc3cc(F)ccc3F)s2)nn1 [Compound 659] |  | 58 | 
36 | Nc1nnc(CCCCc2ccc(NC(=O)Cc3cccc(OC(F)(F)F)c3)nn2)s1 [Compound 657] |  | 1500 | 
37 | CCCC(=O)OCN(C(=O)Cc1ccccc1)c1nnc(CCCCc2ccc(NC(=O)Cc3ccccc3)nn2)s1 [Compound 402] |  | 54 | 
38 | CS(=O)(=O)c1cccc(CC(=O)Nc2nnc(CCCCc3ccc(NC(=O)Cc4cccc(OC(F)(F)F)c4)nn3)s2)c1 [Compound 681] |  | 19 | 
39 | O=C(Cc1cccc(OC(F)(F)F)c1)Nc1ccc(CCCCc2nnc(NC(=O)Cc3ccon3)s2)nn1 [Compound 677] |  | 56 | 
40 | O=C(Cc1cccc(OC(F)(F)F)c1)Nc1ccc(CCCCc2nnc(NC(=O)CN3CCCC3=O)s2)nn1 [Compound 709] |  | 140 | 
41 | O=C(Cc1cccc(OC(F)(F)F)c1)Nc1ccc(CCCCc2nnc(NC(=O)C(OC(=O)C(O)c3ccccc3)c3ccccc3)s2)nn1 (centres unmarked) [Compound 690] |  | 17 | 
42 | O=C(Cc1ccccc1Cl)Nc1ccc(CCCCc2nnc(NC(=O)Cc3ccccc3F)s2)nn1 [Compound 533] | Yes (efflux ratios being significant when greater than or equal to 3 when the Papp (B→A) was greater than or equal to 1×10^−6 cm/s) | 41 | 
43 | O=C(Cc1cccc(OC(F)(F)F)c1)Nc1ccc(CCCCc2nnc(NC(=O)Cn3cc(Cl)cn3)s2)nn1 [Compound 700] |  | 170 | 
44 | CC(C(=O)Nc1nnc(CCCCc2ccc(NC(=O)Cc3cccc(OC(F)(F)F)c3)nn2)s1)c1ccccc1 (centres unmarked) [Compound 636] |  | 59 | 
45 | [2H]C([2H])(CCc1nnc(N)s1)C([2H])([2H])c1ccc(NC(=O)Cc2cccc(OC(F)(F)F)c2)nn1 [Compound 726] |  | 610 | 
46 | CC(C(=O)Nc1nnc(CCCCc2ccc(NC(=O)Cc3ccccc3)nn2)s1)c1ccccc1 (centres unmarked) [Compound 616] | Yes (efflux ratios being significant when greater than or equal to 3 when the Papp (B→A) was greater than or equal to 1×10^−6 cm/s) | 130 | 
47 | O=C(Cc1cccc(OC(F)(F)F)c1)Nc1ccc(CCCCc2nnc(NC(=O)Cc3cccc(F)c3F)s2)nn1 [Compound 663] |  | 89 | 
48 | O=C(Cc1ccc(F)c(OC(F)(F)F)c1)Nc1ccc(CCCCc2nnc(NC(=O)Cc3ccccn3)s2)nn1 [Compound 719] |  | 10 | 
49 | O=C(Cc1cccc(OC(F)(F)F)c1)Nc1ccc(CCCCc2nnc(NC(=O)Cc3ccccc3F)s2)nn1 [Compound 673] |  | 33 | 
50 | Cn1cc(CC(=O)Nc2nnc(CCCCc3ccc(NC(=O)Cc4cccc(OC(F)(F)F)c4)nn3)s2)cn1 [Compound 685] |  | 22 | 
